Results on 7 molecules are retold here after US7618630B2, “Methods of treating multiple myeloma and myeloma-induced bone resorption using integrin antagonists” (Board of Regents, The University of Texas System, priority 1998, dated 2009).

Assay [1] concerns VLA-4 and VLA-5. As to conditions: cited from earlier work.
For assay [2], the target named is VCAM-1 expressed on ST2 mouse bone marrow stromal cells (murine) (UniProt P29533). As to the kind of experiment: cell-based or functional assay.
Assay [3] deals with VLA-4 (Homo sapiens, UniProt P05556+P13612). As to conditions: cited from earlier work.
Chain of VLA-4 (P13612 34-1032): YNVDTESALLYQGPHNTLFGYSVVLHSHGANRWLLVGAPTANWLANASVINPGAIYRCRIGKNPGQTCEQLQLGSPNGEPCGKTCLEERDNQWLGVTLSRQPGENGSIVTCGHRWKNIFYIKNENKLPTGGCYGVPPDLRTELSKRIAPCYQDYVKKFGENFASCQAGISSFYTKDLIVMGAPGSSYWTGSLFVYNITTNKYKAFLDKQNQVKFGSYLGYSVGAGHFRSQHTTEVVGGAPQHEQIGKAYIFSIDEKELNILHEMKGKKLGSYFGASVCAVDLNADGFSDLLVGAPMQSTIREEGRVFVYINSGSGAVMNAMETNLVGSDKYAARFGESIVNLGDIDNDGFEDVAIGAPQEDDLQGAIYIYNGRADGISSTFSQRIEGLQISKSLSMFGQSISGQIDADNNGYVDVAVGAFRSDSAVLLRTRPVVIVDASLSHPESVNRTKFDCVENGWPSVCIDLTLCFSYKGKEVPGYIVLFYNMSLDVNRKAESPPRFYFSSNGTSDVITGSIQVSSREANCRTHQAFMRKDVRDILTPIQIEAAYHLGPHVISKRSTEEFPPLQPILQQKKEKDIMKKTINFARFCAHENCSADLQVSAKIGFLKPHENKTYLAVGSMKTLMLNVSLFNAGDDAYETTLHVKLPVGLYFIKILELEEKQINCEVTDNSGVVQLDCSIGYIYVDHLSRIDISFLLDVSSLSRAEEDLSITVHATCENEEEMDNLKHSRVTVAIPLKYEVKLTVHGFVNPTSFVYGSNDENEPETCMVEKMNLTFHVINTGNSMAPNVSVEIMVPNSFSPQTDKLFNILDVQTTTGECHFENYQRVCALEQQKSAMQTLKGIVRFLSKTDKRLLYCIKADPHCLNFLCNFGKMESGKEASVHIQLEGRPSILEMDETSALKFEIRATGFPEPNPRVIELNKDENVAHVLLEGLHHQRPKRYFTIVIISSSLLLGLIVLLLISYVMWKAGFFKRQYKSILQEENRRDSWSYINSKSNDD
Chain of VLA-4 (P05556 21-798): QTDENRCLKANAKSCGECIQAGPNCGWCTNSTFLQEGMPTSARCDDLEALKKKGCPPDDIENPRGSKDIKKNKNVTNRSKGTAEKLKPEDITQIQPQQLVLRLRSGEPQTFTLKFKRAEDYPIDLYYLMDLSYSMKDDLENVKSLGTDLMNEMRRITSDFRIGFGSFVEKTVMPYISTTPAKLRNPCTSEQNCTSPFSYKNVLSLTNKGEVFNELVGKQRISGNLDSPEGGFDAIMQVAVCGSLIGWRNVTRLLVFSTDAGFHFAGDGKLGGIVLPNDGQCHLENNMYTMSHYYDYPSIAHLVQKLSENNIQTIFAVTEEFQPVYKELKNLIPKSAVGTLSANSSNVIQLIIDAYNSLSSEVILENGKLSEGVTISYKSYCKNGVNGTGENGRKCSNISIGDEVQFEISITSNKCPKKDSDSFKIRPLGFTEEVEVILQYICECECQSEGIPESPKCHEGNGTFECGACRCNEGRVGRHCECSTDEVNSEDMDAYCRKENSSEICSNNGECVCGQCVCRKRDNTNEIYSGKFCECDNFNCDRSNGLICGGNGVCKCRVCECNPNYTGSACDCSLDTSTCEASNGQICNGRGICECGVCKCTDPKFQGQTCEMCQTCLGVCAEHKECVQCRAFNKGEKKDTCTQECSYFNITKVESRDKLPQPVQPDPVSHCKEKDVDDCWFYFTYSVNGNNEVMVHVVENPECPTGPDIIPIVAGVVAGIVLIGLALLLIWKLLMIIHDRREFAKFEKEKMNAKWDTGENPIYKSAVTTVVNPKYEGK
Assay [4] relates to 5TGM1 myeloma cells. As to the kind of experiment: Combined effects of melphalan and anti-alpha 4 integrin Ab in 5TGM1 model (scid/nu/bg mice, day 28). The conditions noted are these: mAb 200 μg first week then 100 μg, melphalan three times. In kind it is in vivo. The method, then:
In one particular set of experiments on the combined effects of melphalan and anti-alpha 4 integrin Ab in 5TGM1 model, as shown in an experimental protocol in FIG. 7, an initial high dose of 200 μg mAb was given during the first week, followed by a maintenance dose of 100 μg. Melphalan was given three times. Animals (scid/nu/bg mice) were sacrificed at day 28 and serum IgG2b levels (a surrogate marker of tumor burden) and tumor burden in bone were measured (histomorphometric analysis of bones). […] The data were a summary of two experiments combined.

The test system of assay [5] is GFP+ 5TGM1 myeloma cells. As to the kind of experiment: Combination treatment with PS/2 and melphalan in C57BL/KaLwRij model of multiple myeloma. In kind it is in vivo, C57BL/KaLwRij mice. As to conditions: day 27. The text has this: Additive/synergistic effects of the combination of PS/2 mAb and melphalan were seen under most conditions. In these experiments, the 5TGM1 cells injected into the animals were transfected with an expression vector containing the GFP gene. These myeloma cells expressed the GFP protein, allowing the myeloma cells to be tracked directly as GFP+ myeloma cells. These myeloma cells could also be tracked as mIgG2b positive cells. The data were only useful on day 27.

Assay [6] relates to 5TGM1 myeloma cells. Kind of assay: Survival by onset of hindleg paralysis of 5TGM1-bearing mice, melphalan and PS/2 mAb. In kind it is in vivo, scid/nu/bg mice. The method, then: We also examined the effects of the combined administration of melphalan (100 μg/mouse) and PS/2 mAb on survival of 5TGM1-bearing mice (scid/nu/bg mice). We evaluated survival by the onset of hindleg paralysis (i.e., the onset of hindleg paralysis was the end-point in these experiments). […] Thus, we can reduce the dose of Melphalan to a quarter in the presence of the anti-α4Ab, as compared to melphalan alone.

The test system of assay [7] is 5TGM1 mouse myeloma cells. As to the kind of experiment: α4Ab and melphalan in 5TGM1-inoculated xid-nu-bg mice. In kind it is in vivo. The method, then:
Here, we studied the effects of a neutralizing antibody to α4 integrin (α4Ab), which disrupts stromal cells/myeloma cell interactions, on the sensitivity of myeloma to melphalan, a most widely-used chemotherapeutic agent for myeloma, using the 5TGM1 mouse myeloma cells that reproducibly cause extensive osteolysis in tumor-bearing animals. The α4Ab (100-200 μg/mouse, i.p., 2 or 3 times a week) and melphalan (50, 100, 200 μg/mouse, i.p., once a week) were administered following inoculation of 5TGM1 cells in the tail vein in male xid-nu-bg mice.

Assay [8] concerns the target integrin VLA-4 expressed on 5TGM1 murine myeloma cells (murine) (UniProt Q00651). As to the kind of experiment: cell-based or functional assay.
For assay [9], the system named is Rank ligand mRNA. Kind of assay: Expression of Rank ligand mRNA in 5TGM1 and ST2 cells. In kind it is cell-based, mouse. The text has this: Because Rank ligand appears to be an important mediator of OCL formation and may be the final common pathway for the effects of osteoclastogenic cytokines on OCL formation, we have examined the expression of Rank ligand in 5TGM1 and ST2 cells both individually and when cocultured. We find that coculture of 5TGM1 and ST2 cells induces Rank ligand mRNA in the ST2 cells.

For assay [10], the system named is 5TGM1 cells. As to the kind of experiment: Osteoclastogenic activity of conditioned medium of sVCAM-1-treated 5TGM1 cells in mouse marrow cultures. In kind it is cell-based. As to conditions: 6 days, 1×10^−7 M sVCAM-1. Here is the method:
Conditioned medium was harvested from 5TGM1 cells cultured in the presence or absence of sVCAM-1 (1×10^−8 to 1×10^−7 Molar) for 24 hours. Osteoclastogenic activity of these conditioned media was assayed in the mouse marrow cultures. Bone marrow cells (1e6/well) were plated into 48-well plates, and cultured in the presence of conditioned media (hatched bars) or control medium (IMDM) containing the same concentrations of sVCAM-1 (open bars). After 6 days, cultures were fixed and the number of TRAP-positive multinucleated OC-like cells (TRAP+MNC) was determined.

Assay [11] concerns 45Ca-labeled fetal rat long bones. As to the kind of experiment: Bone resorption in organ cultures of 45Ca-labeled fetal rat long bones. Format: cell-based. Here is the method: Conditioned media harvested from 5TGM1 cultures were assayed for bone-resorbing activity by organ cultures of 45Ca-labeled fetal rat long bones as described previously (Mbalaviele 1995). Pregnant rats were injected with 250 uCi of 45Ca (New England Nuclear) on the 18th day of gestation. Radius and ulna bone shafts were obtained from 19-day fetuses by microdissection, and precultured for 24 h in BGJ medium (Sigma) supplemented with 0.1% BSA between air and liquid-phase on stainless mesh grids. Bones were then cultured in the presence of conditioned media (50% v/v) or in control medium for 120 hours. The media were changed once at 48 hours. At the end of the culture, bones were incubated in ice-cold 5% trichloroacetic acid for 2 h, and 45Ca radioactivity in bones and media determined in a liquid scintillation counter. Bone resorption was quantitated as the percentage of 45Ca released into the medium from bones as calculated by: (45Ca count in medium)/(45Ca count in medium and bone)×100.

Entries after “also recorded” stand apart in the source; their conditions may differ.

Chain of VCAM-1 expressed on ST2 mouse bone marrow stromal cells (murine) (P29533 25-739): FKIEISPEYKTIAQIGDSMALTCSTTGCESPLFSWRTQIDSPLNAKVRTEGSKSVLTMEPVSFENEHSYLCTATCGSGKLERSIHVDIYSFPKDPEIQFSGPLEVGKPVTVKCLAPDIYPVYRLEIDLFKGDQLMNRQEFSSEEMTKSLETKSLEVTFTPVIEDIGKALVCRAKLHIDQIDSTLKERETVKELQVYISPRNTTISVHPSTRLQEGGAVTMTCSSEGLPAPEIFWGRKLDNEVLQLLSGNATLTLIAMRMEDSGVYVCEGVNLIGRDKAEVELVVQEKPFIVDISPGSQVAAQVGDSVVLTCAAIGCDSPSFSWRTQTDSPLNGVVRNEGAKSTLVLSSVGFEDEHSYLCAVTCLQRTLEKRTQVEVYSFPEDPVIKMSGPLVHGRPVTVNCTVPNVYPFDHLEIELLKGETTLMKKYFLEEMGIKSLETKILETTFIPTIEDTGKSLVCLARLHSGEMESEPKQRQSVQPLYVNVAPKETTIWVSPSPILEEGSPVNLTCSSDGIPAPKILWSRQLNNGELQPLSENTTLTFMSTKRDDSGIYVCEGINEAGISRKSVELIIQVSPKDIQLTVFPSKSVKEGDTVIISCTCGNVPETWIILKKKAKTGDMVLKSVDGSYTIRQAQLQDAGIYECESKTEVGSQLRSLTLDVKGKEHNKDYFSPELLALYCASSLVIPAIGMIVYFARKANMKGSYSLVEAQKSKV
Chain of integrin VLA-4 expressed on 5TGM1 murine myeloma cells (murine) (Q00651 41-1039, chain 1 of 2): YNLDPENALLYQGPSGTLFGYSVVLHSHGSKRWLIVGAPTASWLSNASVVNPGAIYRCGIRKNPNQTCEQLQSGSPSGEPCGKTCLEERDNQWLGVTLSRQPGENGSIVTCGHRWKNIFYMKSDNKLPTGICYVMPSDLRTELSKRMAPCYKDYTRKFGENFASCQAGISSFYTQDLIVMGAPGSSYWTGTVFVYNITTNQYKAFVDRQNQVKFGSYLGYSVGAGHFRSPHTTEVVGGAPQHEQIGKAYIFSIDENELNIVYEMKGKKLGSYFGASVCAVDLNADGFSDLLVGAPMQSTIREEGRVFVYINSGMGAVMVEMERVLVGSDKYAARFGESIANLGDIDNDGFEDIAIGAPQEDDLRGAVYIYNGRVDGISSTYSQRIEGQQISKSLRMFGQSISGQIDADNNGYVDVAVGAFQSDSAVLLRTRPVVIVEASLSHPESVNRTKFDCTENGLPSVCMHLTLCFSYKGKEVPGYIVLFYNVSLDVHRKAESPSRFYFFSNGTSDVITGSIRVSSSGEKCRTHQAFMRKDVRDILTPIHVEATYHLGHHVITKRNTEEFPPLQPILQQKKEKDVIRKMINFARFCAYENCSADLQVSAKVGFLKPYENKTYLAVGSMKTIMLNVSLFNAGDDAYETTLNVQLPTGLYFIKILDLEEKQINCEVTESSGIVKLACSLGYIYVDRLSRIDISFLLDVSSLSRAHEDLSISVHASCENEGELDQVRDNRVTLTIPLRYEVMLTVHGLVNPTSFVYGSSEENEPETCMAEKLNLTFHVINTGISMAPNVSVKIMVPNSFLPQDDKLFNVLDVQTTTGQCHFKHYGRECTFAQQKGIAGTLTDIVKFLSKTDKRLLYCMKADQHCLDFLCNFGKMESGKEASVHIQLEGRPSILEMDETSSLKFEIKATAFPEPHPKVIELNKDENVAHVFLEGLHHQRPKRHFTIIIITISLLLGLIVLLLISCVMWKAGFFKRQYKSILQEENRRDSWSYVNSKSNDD
Chain of integrin VLA-4 expressed on 5TGM1 murine myeloma cells (murine) (P09055 21-798, chain 2 of 2, further chain): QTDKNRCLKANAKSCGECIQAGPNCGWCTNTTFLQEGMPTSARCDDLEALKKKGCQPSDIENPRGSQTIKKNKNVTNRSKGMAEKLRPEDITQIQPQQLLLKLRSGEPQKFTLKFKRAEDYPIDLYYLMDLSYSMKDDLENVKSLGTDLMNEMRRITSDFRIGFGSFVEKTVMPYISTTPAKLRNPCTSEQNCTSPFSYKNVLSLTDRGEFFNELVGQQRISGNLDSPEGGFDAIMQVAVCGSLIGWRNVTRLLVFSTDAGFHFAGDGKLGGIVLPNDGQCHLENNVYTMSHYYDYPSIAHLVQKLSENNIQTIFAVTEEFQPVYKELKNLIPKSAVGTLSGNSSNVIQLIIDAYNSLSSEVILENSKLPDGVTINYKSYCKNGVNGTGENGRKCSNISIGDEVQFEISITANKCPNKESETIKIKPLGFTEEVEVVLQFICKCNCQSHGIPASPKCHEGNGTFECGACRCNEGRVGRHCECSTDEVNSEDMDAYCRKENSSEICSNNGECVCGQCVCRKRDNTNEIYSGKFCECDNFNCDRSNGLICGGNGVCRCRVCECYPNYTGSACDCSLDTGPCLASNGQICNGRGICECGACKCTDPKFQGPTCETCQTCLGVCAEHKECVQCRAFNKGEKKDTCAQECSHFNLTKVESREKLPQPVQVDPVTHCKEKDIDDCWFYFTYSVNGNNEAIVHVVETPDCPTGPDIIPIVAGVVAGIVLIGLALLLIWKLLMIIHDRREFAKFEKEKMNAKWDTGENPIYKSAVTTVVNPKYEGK

As to Arg-Cys-Asp-TPro-Cys, in assay [1], the “inhibition of VLA-4 and VLA-5 adhesion to fibronectin” value was “can inhibit both VLA-4 and VLA-5 adhesion to fibronectin”.

Regarding mAb M/K-2.7 to murine VCAM-1 (antibody), the attachment of 5TGM1 cells to ST2 monolayers in [2] was in the range of 50 to 80%.

Regarding “Leu-Asp-Val-Pro-Ser (LDVPS) [pentapeptide of the fibronectin CS-1 region]”, the “inhibitory activity against fibronectin-dependent cell adhesion” value in [3] is given as “possessed inhibitory activity against fibronectin-dependent cell adhesion”.

Take “Glu-Ile-Leu-Asp-Val (EILDV) [pentapeptide of the fibronectin CS-1 region]”: the “inhibitory activity against fibronectin-dependent cell adhesion” value in assay [3] is recorded as “possessed inhibitory activity against fibronectin-dependent cell adhesion”.

For `N[C@@H](Cc1ccc(N(CCCl)CCCl)cc1)C(=O)O` [melphalan], the “serum IgG2b levels” value in assay [4] is “only modestly affected”. For the same molecule, in [5], the mIgG2b plasma levels result is on record as “unaffected”, the “percentage of GFP+ myeloma cells in blood” value is “unaffected”, the “percentage of GFP+ myeloma cells in bone marrow” value was “Neither melphalan nor PS/2 mAb alone affected” and the “percentage of GFP+ myeloma cells in spleen” value is given as “unaffected”. Also, the “onset of hindleg paralysis” value in assay [6] (melphalan 100 μg/mouse and/or anti-α4Ab) is reported as “had no effect on the onset of hindleg paralysis”. The “onset of hindleg paralysis” value in assay [6] (melphalan alone 200 μg/mouse) was “significantly delayed the onset”. In addition, in assay [7] (melphalan alone 200 μg/mouse), the “serum IgG2 levels” value is on record as “significantly suppressed”. The “serum IgG2 levels” value in assay [7] (melphalan alone 50 and 100 μg/mouse i.p. once a week) is reported as “failed to suppress serum IgG2 levels”.

In turn, mAb PS/2 to VLA-4 (antibody) had an attachment of 5TGM1 cells to ST2 monolayers in [8] of 50 to 80%.

B1: sVCAM-1: recombinant soluble VCAM-1 containing the 7 extracellular domains of human VCAM-1 (protein)
chain: FKIETTPESRYLAQIGDSVSLTCSTTGCESPFFSWRTQIDSPLNGKVTNEGTTSTLTMNPVSFGNEHSYLCTATCESRKLEKGIQVEIYSFPKDPEIHLSGPLEAGKPITVKCSVADVYPFDRLEIDLLKGDHLMKSQEFLEDADRKSLETKSLEVTFTPVIEDIGKVLVCRAKLHIDEMDSVPTVRQAVKELQVYISPKNTVISVNPSTKLQEGGSVTMTCSSEGLPAPEIFWSKKLDNGNLQHLSGNATLTLIAMRMEDSGIYVCEGVNLIGKNRKEVELIVQEKPFTVEISPGPRIAAQIGDSVMLTCSVMGCESPSFSWRTQIDSPLSGKVRSEGTNSTLTLSPVSFENEHSYLCTVTCGHKKLEKGIQVELYSFPRDPEIEMSGGLVNGSSVTVSCKVPSVYPLDRLEIELLKGETILENIEFLEDTDMKSLENKSLEMTFIPTIEDTGKALVCQAKLHIDDMEFEPKQRQSTQTLYVNVAPRDTTVLVSPSSILEEGSSVNMTCLSQGFPAPKILWSRQLPNGELQPLSENATLTLISTKMEDSGVYLCEGINQAGRSRKEVELIIQVTPKDIKLTAFPSESVKEGDTVIISCTCGNVPETWIILKKKAETGDTVLKSIDGAYTIRKAQLKDAGVYECESKNKVGSQLRSLTLDVQGRENNKDYFSPE
B1: in assay [9] (5TGM1 cells treated with sVCAM-1), the “Rank ligand expression in 5TGM1 cells” value was “they do so when treated with sVCAM-1”. Besides, the “Rank ligand mRNA in ST2 cells” value in assay [9] (conditioned medium from 5TGM1 cells treated with sVCAM-1) is on record as “induced Rank ligand mRNA in ST2 cells”. Further, in [10], the “OC-like cell (TRAP(+)MNC) formation by conditioned medium from 5TGM1 cells treated with sVCAM-1” value was “showed increased activity of OC-like cell formation; also recorded: increased TRAP(+)MNC formation”. In assay [11], the “bone resorption by conditioned medium of 5TGM1 treated with sVCAM-1” value is reported as “increased bone resorption in fetal rat long bones in a dose-dependent manner” and the “bone resorption, soluble VCAM-1 itself” value is recorded as “had no effects on bone resorption”.
